Here are results for twelve substances from publication PMC8858294, “Impact of distant peptide substrate residues on enzymatic activity of SlyD” (Cellular and Molecular Life Sciences: CMLS, 2022).

As a reminder, the Kd is the constant that tells how readily two partners part at equilibrium.

Ends that are not written are not given here.

In one test the test system is SlyD^WT. In words: Label-free 1H NMR lineshape prolyl isomerase activity assay with SlyD^WT. In kind it is biochemical, Thermus thermophilus. To be noted: for kcat/KM (SlyD^WT): 1H NMR lineshape analysis, 100 µM peptide, 0 to 6 µM enzyme, 25 °C, 20 mM HEPES, 100 mM NaCl, pH 7.5, linear regression of exchange rate vs enzyme concentration, technical triplicates, error one standard deviation. How it is done: (§1) ^1H NMR spectra of 100 µM peptide samples in 20 mM HEPES, 100 mM NaCl, pH 7.5 were acquired on a Bruker Avance III NMR-spectrometer at 25 °C and different concentrations of enzyme (0 to 6 µM). Samples contained 10% (v/v) D2O and 0.5 mM TCEP. Spectra have been corrected by subtracting identically measured and processed spectra of enzyme only samples, in order to rule out any influence of signals from the enzymes. Spectra were processed using Topspin (Bruker, Inc) and analyzed in MATLAB (mathworks). […] The obtained relative line broadening of the cis and trans signals of methyl group I, is caused by chemical exchange between the two forms and depends on the population of the cis and trans forms, their chemical shift difference (which are both known from experiments without enzyme) and the apparent exchange rate which was derived from the fit. Errors in the fitted parameters were estimated using Monte-Carlo simulations; the reported errors correspond to one standard deviation.
(§2) Tetrapeptides terminally fused with fluorophores sensitive to proline isomerization have been routinely used to study the activity of peptidyl-prolyl cis–trans isomerases, such as SlyD [11]. […] Studying longer peptides usually requires 2D NMR spectroscopy, often in combination with ^13C labeling, in order to detect separate signals for the cis and trans state. […] This approach, which was initially developed for chemically modified tetrapeptides, relies only on the interaction of a leucine residue upstream of the proline (i − 1) and a phenylalanine residue downstream of the proline (i + 1). The different orientations of the leucine and phenylalanine residues in cis and trans proline conformations give rise to different signals for one of the leucine methyl groups (I), while the other methyl group (II) is mostly unaffected (Fig. 2A). At the same time, the impact of the proline cis/trans conformation on the leucine methyl groups is not dependent on the length of the peptide. The only requirement for the design of the peptide substrate is the absence of additional leucine, isoleucine or valine residues that could interfere with the NMR signals of interest. The linewidth of the signals is affected by the enzymatic turnover rate, which itself is dependent on the enzyme concentration (Fig. 2A). The enzymatic activity (kcat/KM) is then determined by the linear regression of the determined rate at various enzyme concentrations at a fixed substrate concentration below KM (Fig. 2B and SI Fig. 1).

Test [1] addresses T1, SlyD^WT FKBP (PPIase) domain (Thermus thermophilus, UniProt Q5SLE7).
T1 sequence (Q5SLE7 1-149): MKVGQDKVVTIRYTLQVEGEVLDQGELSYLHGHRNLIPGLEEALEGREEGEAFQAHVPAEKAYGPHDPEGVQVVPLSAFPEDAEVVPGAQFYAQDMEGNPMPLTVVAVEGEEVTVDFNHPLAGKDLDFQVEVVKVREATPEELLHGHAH
In words: biochemical. In kind it is binding. How it is done: (§3) ITC was measured using MicroCal VP-ITC calorimeter (Malvern) and analysed with MicroCal ITC-ORIGIN Analysis Software. First 1 × 3 µl and then 42 × 6.5 µl of 1.2 mM peptides dissolved in 20 mM HEPES (pH 7.5) and 100 mM NaCl were injected every 240 s from the syringe into the cell containing 50 µM SlyD at 25 °C. The resulting isotherms were fitted with one binding site model in case of SlyDΔIF construct and with two binding site model in case of the wild-type SlyD.

Test [2] deals with SlyD^WT FKBP (PPIase) domain. In words: biochemical. In kind it is binding, Thermus thermophilus. The conditions noted are these: ITC, SlyD^WT and SlyDΔIF. How it is done:
as §3

The target in test [3] is T2, SlyD^WT IF (chaperone) domain (Thermus thermophilus, UniProt Q5SLE7).
T2 sequence (Q5SLE7 70-117): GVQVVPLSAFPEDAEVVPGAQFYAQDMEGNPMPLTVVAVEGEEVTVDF
In words: biochemical. In kind it is binding. How it is done: as §3

In test [4] the target is T3, SlyDΔIF (Thermus thermophilus, UniProt Q5SLE7). In words: Label-free 1H NMR lineshape prolyl isomerase activity assay with SlyDΔIF. In kind it is biochemical. To be noted: 1H NMR lineshape analysis, 100 µM peptide, 0 to 6 µM enzyme, 25 °C, 20 mM HEPES, 100 mM NaCl, pH 7.5; linear regression of exchange rate vs enzyme concentration; technical triplicates; error one standard deviation. How it is done: as §1, §2

Test [5] addresses T3, SlyDΔIF. In words: ITC, peptide binding to SlyDΔIF (one binding site model). To be noted: read-out: KD (SlyDΔIF), 1.2 mM peptide into 50 µM SlyD, 25 °C, 20 mM HEPES pH 7.5, 100 mM NaCl, ± error of fit. How it is done: as §3

Consider H-TRYENAKMLPFAFGA-OH [W4E], for which, in the test on SlyD^WT, the “kcat/KM (SlyD^WT)” value was determined as 4.4e+06 ± 200000 M⁻¹ s⁻¹. Further, the dissociation constant (Kd) in test [1] came out at 13.9 ± 0.9 µM; in test [3], 0.86 ± 0.02 µM. Moreover, the “reduction in affinity compared to the psWT peptide” value in test [2] is recorded as “up to fivefold”. The “kcat/KM (SlyDΔIF)” value at SlyDΔIF [4] stood at 900000 ± 200000 M⁻¹ s⁻¹.
Turning to H-TRYKNAKMLPFAFGA-OH [W4K], the equilibrium dissociation constant (Kd) was found to be 12.6 ± 0.8 µM on SlyDΔIF [5], 3.2 ± 0.3 µM in test [1] and 0.21 ± 0.01 µM in test [3]. In the test on SlyD^WT, the “kcat/KM (SlyD^WT)” value was 2.2e+06 ± 300000 M⁻¹ s⁻¹. Also, the “kcat/KM (SlyDΔIF)” value at SlyDΔIF [4] came to 3.5e+06 ± 700000 M⁻¹ s⁻¹.
Take H-TRYWNAKMLPFAEGA-OH [F13E]: the dissociation constant (Kd) on SlyDΔIF [5] was found to be 36.1 ± 0.8 µM; in test [1] it was 10.4 ± 0.5 µM; in test [3], 1.15 ± 0.01 µM. Moreover, the “kcat/KM (SlyD^WT)” value in the test with SlyD^WT stood at 7e+06 ± 600000 M⁻¹ s⁻¹. Besides, the “reduction in affinity compared to the psWT peptide” value in test [2] is listed as “up to fivefold”. The “kcat/KM (SlyDΔIF)” value at SlyDΔIF [4] worked out at 100000 ± 100000 M⁻¹ s⁻¹.
As for H-TRYWNAKMLPFAFGL-OH [A15L], the Kd on SlyDΔIF [5] amounted to 14.8 ± 0.2 µM; in test [1] it was 4.1 ± 0.1 µM; in test [3] it was 0.16 ± 0.02 µM.
With H-TRYWNAKMLPFAFMA-OH [G14M], the dissociation constant Kd was 8.3 ± 0.5 µM at SlyDΔIF [5], 2.2 ± 0.1 µM in test [1] and 0.1 ± 0.01 µM in test [3].
H-TRYWNAKMLPFAKGA-OH [F13K]: the values for the Kd (at SlyDΔIF [5]; in test [1]; in test [3]) were 20 ± 0.7 µM, 5.2 ± 0.2 µM and 0.11 ± 0.02 µM, respectively. In addition, the “kcat/KM (SlyD^WT)” value with SlyD^WT was 3.4e+06 ± 100000 M⁻¹ s⁻¹. In addition, the “kcat/KM (SlyDΔIF)” value at SlyDΔIF [4] amounted to 2.3e+06 ± 300000 M⁻¹ s⁻¹.
On to “R2A: psWT peptide substrate with mutation R2A (TAYWNAKMLPFAFGA)”, for which, in the test on SlyD^WT, the “kcat/KM (SlyD^WT)” value came to 5.1e+06 ± 300000 M⁻¹ s⁻¹. Also, the “kcat/KM (SlyDΔIF)” value in the test with SlyDΔIF [4] was determined as 1.3e+06 ± 200000 M⁻¹ s⁻¹.
As to TRAWNAKMLPFAFGA [Y3A], the Kd on SlyDΔIF [5] came out at 51.5 ± 8.6 µM; in test [1], 17.3 ± 1.3 µM; in test [3], 0.72 ± 0.1 µM. The “kcat/KM (SlyD^WT)” value with SlyD^WT stood at 3.9e+06 ± 400000 M⁻¹ s⁻¹. Moreover, the “kcat/KM (SlyDΔIF)” value at SlyDΔIF [4] was 2.5e+06 ± 300000 M⁻¹ s⁻¹.
On to TRYANAKMLPFAFGA [W4A], for which, in the test with SlyD^WT, the “kcat/KM (SlyD^WT)” value was 2e+06 ± 200000 M⁻¹ s⁻¹. Further, the values for the Kd in test [1] and in test [3] were 8.4 ± 0.4 µM and 0.75 ± 0.06 µM, respectively. Also, the “kcat/KM (SlyDΔIF)” value at SlyDΔIF [4] turned out to be 1.1e+06 ± 200000 M⁻¹ s⁻¹.
For TRYWNAKALPFAFGA [M8A], the values for the Kd (at SlyDΔIF [5]; in test [1]; in test [3]) were 19.4 ± 1 µM, 6 ± 0.1 µM and 0.24 ± 0.01 µM, respectively. Also, in the test on SlyD^WT, the “kcat/KM (SlyD^WT)” value is 7.7e+06 ± 900000 M⁻¹ s⁻¹. Also, on SlyDΔIF [4], the “kcat/KM (SlyDΔIF)” value was 3.1e+06 ± 100000 M⁻¹ s⁻¹.
For TRYWNAKMLPFAAGA [F13A], the Kd on SlyDΔIF [5] worked out at 22.7 ± 0.6 µM; in test [1], 6.4 ± 0.3 µM; in test [3], 0.38 ± 0.02 µM. Moreover, in the test with SlyD^WT, the “kcat/KM (SlyD^WT)” value came out at 3.1e+06 ± 100000 M⁻¹ s⁻¹. The “kcat/KM (SlyDΔIF)” value at SlyDΔIF [4] is 400000 ± 100000 M⁻¹ s⁻¹.
Consider TRYWNAKMLPFAFGA [psWT], for which the Kd came out at 15.6 ± 0.2 µM at SlyDΔIF [5], 3.5 ± 0.1 µM in test [1] and 0.22 ± 0.01 µM in test [3]. For the same substance, the “kcat/KM (SlyD^WT)” value in the test with SlyD^WT came out at 4.9e+06 ± 300000 M⁻¹ s⁻¹. Besides, the “increase of activity by the chaperone domain (factor, SlyD^WT vs SlyDΔIF)” value in the test on SlyD^WT (15-residue peptide at 100 µM, chaperone domain occupied) was 2.2. Moreover, the “kcat/KM (SlyDΔIF)” value on SlyDΔIF [4] was determined as 2.2e+06 ± 300000 M⁻¹ s⁻¹.
